Holding throughout (assay): biochemical
What all share (design): KINOMEscan competition binding panel (Eurofins DiscoverX), single concentration, percent inhibition
Holding throughout (conditions): read-out: 15 at 1 µM % inhibition

One assay has as its target CHEK1 (Homo sapiens, UniProt O14757). The procedure, abridged: (§1)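 Values come from single-concentration (1 µM) profiling in the Eurofins DiscoverX KINOMEscan competition-binding platform, which covers over 400 kinases.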
A further assay addresses TGFBR1 (Homo sapiens, UniProt P36897). In a few lines: as §1
The target in a further assay is DAPK3 (Homo sapiens, UniProt O43293). In a few lines:
as §1

The next assay deals with DAPK1 (Homo sapiens, UniProt P53355). In a few lines:
as §1

The target of a further assay is RIPK4 (Homo sapiens, UniProt P57078). The procedure, abridged:
as §1

The target in another assay is CHEK2 (Homo sapiens, UniProt O96017). In a few lines:
as §1

The target in a further assay is T1, ASK2 (Homo sapiens, UniProt O95382).
T1 construct: gene MAP3K6
The procedure, abridged: as §1

Assay [1] addresses T2, RSK3(Kin.Dom.2-C-terminal) (Homo sapiens, UniProt Q15349).
T2 construct: gene RPS6KA2; Kin.Dom.2-C-terminal
In a few lines: as §1

Another assay deals with PIK3CB (Homo sapiens, UniProt P42338). The procedure, abridged: as §1
In another assay the target is CASK (Homo sapiens, UniProt O14936). The procedure, abridged: as §1
Another assay deals with FLT1 (Homo sapiens, UniProt P17948). The procedure, abridged: as §1
A further assay has as its target T3, S6K1 (Homo sapiens, UniProt P23443).
T3 construct: gene RPS6KB1
The procedure, abridged:
as §1

The next assay addresses T4, RIPK5 (Homo sapiens, UniProt Q6XUX3).
T4 construct: gene DSTYK
The procedure, abridged:
as §1

A further assay concerns the target TNNI3K (Homo sapiens, UniProt Q59H18). In a few lines:
as §1

The target of the next assay is EPHB6 (Homo sapiens, UniProt O15197). In a few lines: as §1
For the next assay, the target named is FLT3(R834Q) (Homo sapiens, UniProt P36888, R834Q). The procedure, abridged: as §1
The next assay addresses ACVR1B (Homo sapiens, UniProt P36896). The procedure, abridged: as §1
The target of the next assay is PLK3 (Homo sapiens, UniProt Q9H4B4). The procedure, abridged:
as §1

Another assay deals with EPHA5 (Homo sapiens, UniProt P54756). The procedure, abridged: as §1
For the next assay, the target named is T5, ERK5 (Homo sapiens, UniProt Q13164).
T5 construct: gene MAPK7
The procedure, abridged: as §1

The target in a further assay is T6, MEK3 (Homo sapiens, UniProt P46734).
T6 construct: gene MAP2K3
In a few lines:
as §1

The target of another assay is MET(M1250T) (Homo sapiens, UniProt P08581, M1250T). The procedure, abridged:
as §1

A further assay concerns the target MAK (Homo sapiens, UniProt P20794). In a few lines: as §1
The target in another assay is SNRK (Homo sapiens, UniProt Q9NRH2). In a few lines: as §1

A word on the inhibition: it is the drop in the measured response relative to a control, in per cent.

Chain of CHEK1 (O14757 whole entry): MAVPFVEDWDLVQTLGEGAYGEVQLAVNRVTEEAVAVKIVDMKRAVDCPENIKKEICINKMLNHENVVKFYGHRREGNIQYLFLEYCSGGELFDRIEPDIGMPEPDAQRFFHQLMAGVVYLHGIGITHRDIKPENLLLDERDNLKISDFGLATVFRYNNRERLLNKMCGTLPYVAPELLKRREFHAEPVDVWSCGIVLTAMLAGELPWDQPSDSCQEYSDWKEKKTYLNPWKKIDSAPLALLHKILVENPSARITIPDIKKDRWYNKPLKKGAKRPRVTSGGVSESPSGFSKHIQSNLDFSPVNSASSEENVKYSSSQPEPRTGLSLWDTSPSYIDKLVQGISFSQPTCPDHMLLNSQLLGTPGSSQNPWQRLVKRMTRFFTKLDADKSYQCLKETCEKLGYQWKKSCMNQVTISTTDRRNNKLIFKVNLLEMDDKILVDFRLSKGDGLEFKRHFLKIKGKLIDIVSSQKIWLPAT
Chain of TNNI3K (Q59H18 whole entry): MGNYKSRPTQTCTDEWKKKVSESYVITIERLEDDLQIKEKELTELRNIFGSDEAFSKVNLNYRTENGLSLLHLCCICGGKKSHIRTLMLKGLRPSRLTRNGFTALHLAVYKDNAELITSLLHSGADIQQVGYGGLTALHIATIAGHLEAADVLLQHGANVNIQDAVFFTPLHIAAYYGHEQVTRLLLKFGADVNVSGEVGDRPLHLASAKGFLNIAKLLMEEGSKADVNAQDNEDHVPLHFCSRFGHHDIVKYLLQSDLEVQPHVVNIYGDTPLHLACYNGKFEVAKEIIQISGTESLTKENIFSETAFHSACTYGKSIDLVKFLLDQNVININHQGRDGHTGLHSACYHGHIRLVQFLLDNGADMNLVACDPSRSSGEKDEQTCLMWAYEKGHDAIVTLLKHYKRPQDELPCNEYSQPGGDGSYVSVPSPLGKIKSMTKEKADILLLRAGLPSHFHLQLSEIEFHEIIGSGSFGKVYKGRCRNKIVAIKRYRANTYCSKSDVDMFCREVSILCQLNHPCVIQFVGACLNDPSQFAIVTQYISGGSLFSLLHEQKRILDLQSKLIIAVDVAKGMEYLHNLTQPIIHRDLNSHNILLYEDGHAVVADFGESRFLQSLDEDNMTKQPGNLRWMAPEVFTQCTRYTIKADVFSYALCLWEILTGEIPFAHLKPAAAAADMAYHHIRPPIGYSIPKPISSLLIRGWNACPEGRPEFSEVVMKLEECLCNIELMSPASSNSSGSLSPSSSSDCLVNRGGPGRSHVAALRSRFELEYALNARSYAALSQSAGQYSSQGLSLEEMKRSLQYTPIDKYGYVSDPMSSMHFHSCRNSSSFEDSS
T5 sequence (Q13164 whole entry): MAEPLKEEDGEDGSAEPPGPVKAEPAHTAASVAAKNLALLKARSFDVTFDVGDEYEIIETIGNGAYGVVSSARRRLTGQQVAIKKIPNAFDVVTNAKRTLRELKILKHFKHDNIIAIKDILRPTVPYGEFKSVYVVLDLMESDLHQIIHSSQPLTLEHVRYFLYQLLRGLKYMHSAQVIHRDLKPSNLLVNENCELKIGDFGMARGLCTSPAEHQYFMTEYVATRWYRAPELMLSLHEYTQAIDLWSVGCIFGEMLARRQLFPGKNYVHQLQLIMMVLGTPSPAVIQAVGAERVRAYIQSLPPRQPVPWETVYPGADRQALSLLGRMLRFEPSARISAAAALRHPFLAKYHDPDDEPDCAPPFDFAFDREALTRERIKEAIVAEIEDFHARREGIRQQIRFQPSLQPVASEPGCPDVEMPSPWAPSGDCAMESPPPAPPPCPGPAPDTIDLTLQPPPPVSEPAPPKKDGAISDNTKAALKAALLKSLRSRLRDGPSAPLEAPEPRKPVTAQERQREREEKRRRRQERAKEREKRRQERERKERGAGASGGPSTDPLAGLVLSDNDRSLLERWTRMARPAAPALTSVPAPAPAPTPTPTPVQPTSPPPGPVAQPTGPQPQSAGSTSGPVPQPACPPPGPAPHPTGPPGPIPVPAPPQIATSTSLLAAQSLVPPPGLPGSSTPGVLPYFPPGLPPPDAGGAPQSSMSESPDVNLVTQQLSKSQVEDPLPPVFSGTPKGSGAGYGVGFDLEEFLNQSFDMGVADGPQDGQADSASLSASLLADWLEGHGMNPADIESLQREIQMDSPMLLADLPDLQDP
Chain of FLT1 (P17948 whole entry): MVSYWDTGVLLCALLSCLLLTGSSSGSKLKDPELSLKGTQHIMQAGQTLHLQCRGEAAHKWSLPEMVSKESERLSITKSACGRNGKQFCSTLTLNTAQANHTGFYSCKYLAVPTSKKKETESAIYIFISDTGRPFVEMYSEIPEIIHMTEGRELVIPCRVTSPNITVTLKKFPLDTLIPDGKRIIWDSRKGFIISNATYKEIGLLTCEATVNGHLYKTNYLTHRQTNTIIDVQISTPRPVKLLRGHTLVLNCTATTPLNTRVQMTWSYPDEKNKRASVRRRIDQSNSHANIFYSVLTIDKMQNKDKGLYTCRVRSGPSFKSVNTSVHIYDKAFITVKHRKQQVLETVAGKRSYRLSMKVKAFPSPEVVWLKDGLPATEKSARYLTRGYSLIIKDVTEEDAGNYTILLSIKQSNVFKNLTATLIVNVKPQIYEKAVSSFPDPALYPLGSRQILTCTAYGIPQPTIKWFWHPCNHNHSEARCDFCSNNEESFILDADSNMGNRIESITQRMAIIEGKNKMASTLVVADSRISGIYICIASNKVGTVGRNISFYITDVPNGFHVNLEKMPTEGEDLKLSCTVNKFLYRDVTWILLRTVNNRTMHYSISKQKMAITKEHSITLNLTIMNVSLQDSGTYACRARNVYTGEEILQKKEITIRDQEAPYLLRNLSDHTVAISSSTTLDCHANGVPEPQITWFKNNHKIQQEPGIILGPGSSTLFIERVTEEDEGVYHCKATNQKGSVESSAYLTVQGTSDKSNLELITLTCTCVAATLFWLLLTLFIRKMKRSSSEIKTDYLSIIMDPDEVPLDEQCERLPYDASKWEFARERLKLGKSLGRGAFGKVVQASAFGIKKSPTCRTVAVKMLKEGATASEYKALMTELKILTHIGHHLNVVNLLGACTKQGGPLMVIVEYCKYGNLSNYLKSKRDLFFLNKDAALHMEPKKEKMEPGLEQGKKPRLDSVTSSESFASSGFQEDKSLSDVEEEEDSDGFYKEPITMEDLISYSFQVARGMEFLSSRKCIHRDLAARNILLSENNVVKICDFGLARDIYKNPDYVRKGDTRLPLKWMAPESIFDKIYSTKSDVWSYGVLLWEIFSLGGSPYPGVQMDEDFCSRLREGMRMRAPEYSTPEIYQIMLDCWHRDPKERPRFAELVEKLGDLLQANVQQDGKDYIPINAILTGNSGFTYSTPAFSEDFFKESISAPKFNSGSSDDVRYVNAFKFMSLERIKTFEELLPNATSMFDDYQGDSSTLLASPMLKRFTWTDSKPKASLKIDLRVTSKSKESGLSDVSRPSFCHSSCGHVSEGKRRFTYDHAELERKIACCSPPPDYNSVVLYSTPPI
Chain of CASK (O14936 whole entry): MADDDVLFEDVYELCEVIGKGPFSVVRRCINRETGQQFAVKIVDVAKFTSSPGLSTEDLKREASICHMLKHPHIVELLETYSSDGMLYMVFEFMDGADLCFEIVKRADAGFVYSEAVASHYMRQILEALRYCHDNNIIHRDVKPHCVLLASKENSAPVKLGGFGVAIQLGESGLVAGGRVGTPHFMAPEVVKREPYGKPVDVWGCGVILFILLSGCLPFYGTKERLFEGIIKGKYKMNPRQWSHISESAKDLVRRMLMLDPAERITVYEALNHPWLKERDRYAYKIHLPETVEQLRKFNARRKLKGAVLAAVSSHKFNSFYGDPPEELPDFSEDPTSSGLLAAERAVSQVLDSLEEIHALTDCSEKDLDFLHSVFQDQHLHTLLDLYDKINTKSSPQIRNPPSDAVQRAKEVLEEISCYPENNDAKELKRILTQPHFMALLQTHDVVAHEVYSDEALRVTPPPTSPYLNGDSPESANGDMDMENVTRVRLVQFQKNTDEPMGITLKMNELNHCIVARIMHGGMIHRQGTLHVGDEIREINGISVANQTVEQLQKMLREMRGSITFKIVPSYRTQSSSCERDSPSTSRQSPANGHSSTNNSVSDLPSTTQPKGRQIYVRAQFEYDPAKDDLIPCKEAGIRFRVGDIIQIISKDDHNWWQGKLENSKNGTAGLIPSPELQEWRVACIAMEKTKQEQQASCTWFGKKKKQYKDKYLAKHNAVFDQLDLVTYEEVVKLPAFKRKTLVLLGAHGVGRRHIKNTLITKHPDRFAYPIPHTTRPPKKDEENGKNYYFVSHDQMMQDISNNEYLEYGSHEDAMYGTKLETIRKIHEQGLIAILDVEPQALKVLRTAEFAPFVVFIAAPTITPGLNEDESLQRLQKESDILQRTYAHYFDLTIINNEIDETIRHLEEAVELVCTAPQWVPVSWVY
T3 sequence (P23443 whole entry): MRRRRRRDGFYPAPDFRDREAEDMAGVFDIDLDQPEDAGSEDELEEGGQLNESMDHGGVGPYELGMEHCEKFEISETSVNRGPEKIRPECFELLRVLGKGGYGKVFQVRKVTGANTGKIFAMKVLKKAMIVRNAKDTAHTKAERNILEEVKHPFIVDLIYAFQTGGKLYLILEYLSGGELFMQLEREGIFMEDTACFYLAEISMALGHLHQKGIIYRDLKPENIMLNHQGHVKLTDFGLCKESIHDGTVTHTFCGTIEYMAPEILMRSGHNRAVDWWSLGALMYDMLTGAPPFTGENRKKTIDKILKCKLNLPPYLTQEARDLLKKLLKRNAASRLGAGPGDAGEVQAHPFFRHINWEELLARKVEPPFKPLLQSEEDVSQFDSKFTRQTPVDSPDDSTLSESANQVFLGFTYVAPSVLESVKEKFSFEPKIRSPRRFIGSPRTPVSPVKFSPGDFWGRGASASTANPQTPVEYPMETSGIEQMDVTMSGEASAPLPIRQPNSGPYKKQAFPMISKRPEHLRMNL

Regarding `CNS(=O)(=O)c1ccc(N(C)C)c(Nc2nc(C)nc3cc(OC)c(OC)cc23)c1` [compound 15, 3-((6,7-dimethoxy-2-methylquinazolin-4-yl)amino)-4-(dimethylamino)-N-methylbenzenesulfonamide], the inhibition at 1 µM is 1% at CHEK1; 0% on TGFBR1; 0% on DAPK3; 7% on DAPK1; 8% on RIPK4; 13% at CHEK2. In addition, the inhibition at 1 µM was found to be 0% at ASK2; 0% in assay [1]; 25% at PIK3CB; 26% on CASK; 0% on FLT1; 20% on S6K1. The inhibition at 1 µM was 12% at RIPK5; 7% on TNNI3K; 0% at EPHB6; 32% at FLT3(R834Q); 0% on ACVR1B; 8% on PLK3. Also, the inhibition at 1 µM on EPHA5 stood at 0%; at ERK5, 5%; at MEK3, 22%; on MET(M1250T), 0%; at MAK, 8%; at SNRK, 13%.

For the origin of these results see publication PMC7180948, “New Insights into 4-Anilinoquinazolines as Inhibitors of Cardiac Troponin I–Interacting Kinase (TNNi3K)” (Molecules, 2020).
